target: human P2X7 receptor (Homo sapiens, UniProt Q99572, R270H/Y155H); assay: Evaluation of human P2X7 receptor inhibitory activity (Yo-Pro uptake, BzATP stimulation, FLIPR TETRA); assay type: cell-based; conditions: 1321N1 cells stably expressing human P2X7 receptor; BzATP stimulation, Yo-Pro uptake; read-out: IC50 (antagonistic activity for the human P2X7 receptor)
Method: Stably expressing cell line (1321N1 cell transfected with the human P2X7 receptor gene (GenBank accession number NM_002562.5 including T606C and G952A SNP)) was used. The cells were seeded in a 384-well microtiter plate at a concentration of 8000 cells/well and cultured in the medium (10% fetal bovine serum, 25 mM HEPES, 1% penicillin and streptomycin in DMEM) for one day at 37° C. under 5% carbon dioxide atmosphere. After replacing with 20 μL of the HBSS buffer (20 mM HEPES, 55.6 mM D-glucose, 1×HBSS(−), pH7.4-7.5), 15 μL of 17.3 μM Yo-Pro solution in the HBSS buffer was added. The plate was placed in high-throughput cellular screening system FLIPR TETRA (Molecullar Devices, LLC.) and 15 μL of 130 μM BzATP solution in the HBSS buffer was added. Measurement of fluorescence intensity by FLIPR TETRA was started. After eight minutes, 15 μL of DMSO solutions containing different concentrations of the compound of the present invention as prepared by dilution with the HBSS buffer were dispensed to each well through the built-in automatic dispenser, and the measurement of fluorescence intensity was continued for 20 minutes. […] Changing values of fluorescence intensity by the compound of the present invention were calculated by difference between maximum and minimum fluorescence intensity for 20 minutes. Inhibition ratios (%) were calculated from the following equation:
[formula] IC50 was calculated using logistic approximation.

| Structure (SMILES) | IC50 [µM] |
| --- | --- |
| COc1ccc(C)c(Nc2nc(=O)c(OC)cn2Cc2ccc(F)c(F)c2)c1 [Compound I-0407] | 0.006 |
| COc1cn(Cc2ccc(F)c(Cl)c2)c(N[C@@H]2CCc3ccccc32)nc1=O [Compound I-0335] | 0.17 |

same assay, conditions: 1321N1 cells stably expressing human P2X7 receptor; BzATP stimulation, Yo-Pro uptake; read-out: IC50 (antagonistic activity for the human P2X7 receptor), class symbol

| Structure (SMILES) | IC50 [µM] |
| --- | --- |
| Cc1cc2c(cc1Nc1nc(=O)c(F)cn1Cc1ccc(F)c(Cl)c1)OCCO2 [Compound I-0369] | < 0.01 |
| COc1cn(Cc2ccccc2)c(Nc2cccc3c2ccn3C)nc1=O [Compound I-0117] | 0.01 to 0.1 |
| CCc1ccc(F)cc1Nc1nc(=O)c(OC)cn1Cc1ccc(F)cc1 [Compound I-0565] | 0.1 to 0.5 |
| COc1c(C)ccc(Nc2nc(=O)c(OC)cn2Cc2ccccc2)c1C [Compound I-0410] | < 0.01 |
| COc1cn(Cc2cccc(F)c2)c(Nc2cc3c(cc2C)OCCO3)nc1=O [Compound I-0288] | 0.01 to 0.1 |
| CCc1cc(Cl)ccc1Nc1nc(=O)c(OC)cn1Cc1cc(F)cc(F)c1 [Compound I-0542] | 0.01 to 0.1 |
| COc1cn(Cc2cccc(Cl)c2)c(Nc2cccc(Cl)c2C)nc1=O [Compound I-0126] | 0.01 to 0.1 |
| COc1cn(Cc2ccccc2)c(Nc2ccc(OC(C)C)cc2C)nc1=O [Compound I-0191] | 0.1 to 0.5 |
| COc1cn(Cc2ccc(F)c(F)c2)c(Nc2cc(OC(C)C)ccc2C)nc1=O [Compound I-0555] | 0.01 to 0.1 |
| COc1cn(Cc2ccc(F)c(F)c2)c(Nc2ccc(N3CCOCC3)cc2C)nc1=O [Compound I-0519] | 0.01 to 0.1 |
| COc1cc(C)cc(Nc2nc(=O)c(OC)cn2Cc2cc(F)cc(F)c2)c1C [Compound I-0371] | < 0.01 |
| CCc1cc(OC)c(OC)cc1Nc1nc(=O)c(F)cn1Cc1ccccc1 [Compound I-0266] | < 0.01 |
| CCc1c(Nc2nc(=O)c(OC)cn2Cc2cccc(Cl)c2)cc(OC)cc1OC [Compound I-0362] | < 0.01 |
| CCc1cc(Cl)ccc1Nc1nc(=O)c(OC)cn1Cc1ccccc1 [Compound I-0161] | 0.01 to 0.1 |
| CCc1ccc(Nc2nc(=O)c(OC)cn2Cc2ccccc2)c(CC)c1 [Compound I-0210] | 0.01 to 0.1 |
| COc1cn(Cc2cccc(Cl)c2)c(Nc2ccc(C)cc2C)nc1=O [Compound I-0374] | 0.01 to 0.1 |

same assay, conditions: antagonistic activity for the human P2X7 receptor; read-out: IC50

| Structure (SMILES) | IC50 [µM] |
| --- | --- |
| COc1cc(Nc2nc(=O)c(F)cn2Cc2cc(F)c(F)c(F)c2)c(C)nc1F [Compound I-1117] | 0.01 to 0.1 |
| CCOc1cc(Nc2nc(=O)c(OC)cn2Cc2cc(F)c(F)c(F)c2)c(C)cc1F [Compound I-0921] | < 0.01 |
| Cc1nc2[nH]ccc2cc1Nc1nc(=O)c(F)cn1Cc1cc(F)c(F)c(F)c1 [Compound I-1017] | 0.01 to 0.1 |
| Cc1cc2cc(Nc3nc(=O)c(F)cn3Cc3ccc(F)c(F)c3)c(C)cc2[nH]1 [Compound I-1056] | 0.01 to 0.1 |
| COCc1cc(=O)nc(Nc2cc(OC)c(OC)cc2C)n1Cc1cc(F)c(F)c(F)c1 [Compound I-1147] | 0.01 to 0.1 |
| CCOc1cc(Nc2nc(=O)c(OC)cn2Cc2ccc(F)c(F)c2)c(C)cc1C [Compound I-0793] | < 0.01 |
| COc1cn(Cc2ccccc2)c(Nc2c(C)cccc2C)nc1=O [Compound I-0724] | 0.1 to 0.5 |
| COc1cn(Cc2cc(F)cc(Cl)c2)c(Nc2cc(OC(F)(F)F)ccc2C)nc1=O [Compound I-0694] | 0.1 to 0.5 |
| COc1cn(Cc2ccc(F)c(F)c2)c(Nc2cc(OC3CC3)ccc2C)nc1=O [Compound I-0890] | 0.01 to 0.1 |
| COc1ccc(Nc2nc(=O)c(OC)cn2Cc2cc(F)c(F)c(F)c2)c(Cl)c1 [Compound I-0847] | < 0.01 |
| COc1ccc(Nc2nc(=O)c(Cl)nn2Cc2cc(F)c(F)c(F)c2)c(C)c1 [Compound I-1265] | 0.01 to 0.1 |
| COc1cn(Cc2ccc(F)c(Cl)c2)c(Nc2cc(F)c(Cl)cc2C)nc1=O [Compound I-0887] | 0.01 to 0.1 |
| Cc1cc2[nH]ccc2cc1Nc1nc(=O)c(F)cn1Cc1ccc(F)c(Cl)c1 [Compound I-1042] | < 0.01 |
| COc1cn(Cc2cc(F)cc(F)c2)c(Nc2cc(N3CCCC3)ccc2C)nc1=O [Compound I-0885] | 0.01 to 0.1 |
| COc1cc(C)c(Nc2nc(=O)ccn2Cc2ccc(F)c(Cl)c2)cc1OC [Compound I-1159] | < 0.01 |

Source: patent US10774051B2, “6-membered heterocyclic derivatives and pharmaceutical composition comprising the same” (Shionogi & Co., Ltd., priority 2015, dated 2020)
